According to the supplement of paper PMC8671470:
Counter-ions that a name gives are not always drawn.

Legend:
Test in all cases: area under dose-response curve (viability, 1 nM-10 uM) (fraction (0-1)); higher = more sensitive
Conditions in all cases: 72 h
[1] = system: myeloid leukemia patient primary cells Pat.6
Outline: (§1)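 Seventy compounds were pre-printed on 384-well plates at five tenfold concentrations between 1 and 10,000 nM, in duplicate. Thawed mononuclear cells purified by Ficoll from AML or CML patients were added at 10,000 cells/well in RPMI 1640 with 10% FBS for 72 h. Viability by CellTiter-Glo was normalised to DMSO and 10 μM proteasome-inhibitor wells. Where stated, area under the curve was taken from log-logistic fits made with the drc and PharmacoGx R packages, each fit having four parameters.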

[2] = system: myeloid leukemia patient primary cells Pat.1
Outline: as §1

[3] = system: myeloid leukemia patient primary cells Pat.10
Outline: as §1

[4] = system: myeloid leukemia patient primary cells Pat.8
Outline: as §1

[5] = system: myeloid leukemia patient primary cells Pat.11
Outline: as §1

[6] = system: myeloid leukemia patient primary cells Pat.13
Outline: as §1

[7] = system: myeloid leukemia patient primary cells Pat.14
Outline: as §1

[8] = system: myeloid leukemia patient primary cells Pat.2
Outline: as §1

[9] = system: myeloid leukemia patient primary cells Pat.5
Outline: as §1

[10] = system: myeloid leukemia patient primary cells Pat.7
Outline: as §1

[11] = system: myeloid leukemia patient primary cells Pat.9
Outline: as §1

[12] = system: myeloid leukemia patient primary cells Pat.12
Outline: as §1

[13] = system: myeloid leukemia patient primary cells Pat.4
Outline: as §1

[14] = system: myeloid leukemia patient primary cells Pat.15
Outline: as §1

Cc1nnc(-c2ccc(N3CCC(Oc4ccccc4C(F)(F)F)CC3)nn2)s1 [MF-438]
area under dose-response curve [1]: < 0.0301
area under dose-response curve [2]: < 0.0301
area under dose-response curve [3]: < 0.0301
area under dose-response curve [4]: < 0.0301
area under dose-response curve [5]: < 0.0301
area under dose-response curve [6]: < 0.0301
area under dose-response curve [7]: < 0.0301
area under dose-response curve [8]: < 0.0301
area under dose-response curve [9]: 0.232
area under dose-response curve [10]: 0.128
area under dose-response curve [11]: < 0.0301
area under dose-response curve [12]: < 0.0301

O=C(Cc1cccc(OC(F)(F)F)c1)Nc1ccc(CCCCc2nnc(NC(=O)Cc3ccccn3)s2)nn1 [CB-839]
area under dose-response curve [13]: < 0.0301
area under dose-response curve [1]: < 0.0301
area under dose-response curve [2]: < 0.0301
area under dose-response curve [3]: 0.665
area under dose-response curve [4]: < 0.0301
area under dose-response curve [5]: < 0.0301
area under dose-response curve [6]: < 0.0301
area under dose-response curve [7]: 0.434
area under dose-response curve [8]: < 0.0301
area under dose-response curve [9]: < 0.0301
area under dose-response curve [10]: 0.532
area under dose-response curve [11]: 0.752
area under dose-response curve [12]: < 0.0301
area under dose-response curve [14]: 0.283

C=C1NC(=O)c2cc(CN(C)c3ccc(C(=O)N[C@@H](CCC(=O)O)C(=O)O)s3)ccc2N1 [Raltitrexed]
area under dose-response curve [13]: < 0.0301
area under dose-response curve [1]: < 0.0301
area under dose-response curve [2]: < 0.0301
area under dose-response curve [3]: < 0.0301
area under dose-response curve [4]: < 0.0301
area under dose-response curve [5]: < 0.0301
area under dose-response curve [6]: < 0.0301
area under dose-response curve [7]: < 0.0301
area under dose-response curve [8]: < 0.0301
area under dose-response curve [9]: < 0.0301
area under dose-response curve [10]: < 0.0301
area under dose-response curve [11]: < 0.0301
area under dose-response curve [12]: < 0.0301
area under dose-response curve [14]: < 0.0301

O=c1[nH]c(=O)n([C@H]2C[C@H](O)[C@@H](CO)O2)cc1I [Idoxuridine]
area under dose-response curve [13]: < 0.0301
area under dose-response curve [1]: < 0.0301
area under dose-response curve [2]: < 0.0301
area under dose-response curve [3]: < 0.0301
area under dose-response curve [4]: < 0.0301
area under dose-response curve [5]: < 0.0301
area under dose-response curve [6]: < 0.0301
area under dose-response curve [7]: < 0.0301
area under dose-response curve [8]: < 0.0301
area under dose-response curve [9]: < 0.0301
area under dose-response curve [10]: < 0.0301
area under dose-response curve [11]: < 0.0301
area under dose-response curve [12]: < 0.0301
area under dose-response curve [14]: < 0.0301

CC(C)(Cc1ccccc1)NCC(O)c1ccc(O)c(NS(C)(=O)=O)c1 (configuration not stated) [Zinterol hydrochloride]
area under dose-response curve [13]: < 0.0301
area under dose-response curve [1]: < 0.0301
area under dose-response curve [2]: < 0.0301
area under dose-response curve [3]: < 0.0301
area under dose-response curve [4]: < 0.0301
area under dose-response curve [5]: < 0.0301
area under dose-response curve [6]: < 0.0301
area under dose-response curve [7]: < 0.0301
area under dose-response curve [8]: < 0.0301
area under dose-response curve [9]: < 0.0301
area under dose-response curve [10]: < 0.0301
area under dose-response curve [11]: < 0.0301
area under dose-response curve [12]: < 0.0301
area under dose-response curve [14]: < 0.0301

Nc1ccn([C@@H]2O[C@H](CO)[C@@H](O)C2(F)F)c(=O)n1 [Gemcitabine]
area under dose-response curve [13]: 0.155
area under dose-response curve [1]: < 0.0301
area under dose-response curve [2]: 0.0673
area under dose-response curve [3]: 0.257
area under dose-response curve [4]: 0.0474
area under dose-response curve [6]: 0.0519
area under dose-response curve [7]: 0.131
area under dose-response curve [8]: 0.0848
area under dose-response curve [9]: 0.956
area under dose-response curve [10]: 0.135
area under dose-response curve [11]: 0.956
area under dose-response curve [12]: < 0.0301
area under dose-response curve [14]: 0.0872

O=C(c1c2ccccc2cc2ccccc12)N1CCC(N2CCC[C@@H](C(=O)N3CCOCC3)C2)CC1
area under dose-response curve [13]: < 0.0301
area under dose-response curve [1]: < 0.0301
area under dose-response curve [2]: < 0.0301
area under dose-response curve [3]: < 0.0301
area under dose-response curve [4]: < 0.0301
area under dose-response curve [5]: < 0.0301
area under dose-response curve [6]: < 0.0301
area under dose-response curve [7]: < 0.0301
area under dose-response curve [8]: < 0.0301
area under dose-response curve [9]: 0.309
area under dose-response curve [10]: 0.312
area under dose-response curve [11]: 0.327
area under dose-response curve [12]: < 0.0301
area under dose-response curve [14]: < 0.0301

Nc1nc(O)c2c(CCc3ccc(C(=O)N[C@@H](CCC(=O)O)C(=O)O)cc3)c[nH]c2n1 [Pemetrexed]
area under dose-response curve [13]: < 0.0301
area under dose-response curve [1]: < 0.0301
area under dose-response curve [2]: < 0.0301
area under dose-response curve [3]: < 0.0301
area under dose-response curve [4]: < 0.0301
area under dose-response curve [5]: < 0.0301
area under dose-response curve [6]: < 0.0301
area under dose-response curve [7]: < 0.0301
area under dose-response curve [8]: < 0.0301
area under dose-response curve [9]: 0.0877
area under dose-response curve [10]: < 0.0301
area under dose-response curve [11]: 0.0468
area under dose-response curve [12]: < 0.0301
area under dose-response curve [14]: < 0.0301

CN(C)CCNC(=O)c1cccn2c(=O)c3cc4ccccc4cc3nc12 [Bmh-21]
area under dose-response curve [13]: 0.36
area under dose-response curve [1]: 0.199
area under dose-response curve [2]: 0.368
area under dose-response curve [3]: 0.263
area under dose-response curve [4]: 0.121
area under dose-response curve [5]: 0.31
area under dose-response curve [6]: 0.338
area under dose-response curve [7]: 0.254
area under dose-response curve [8]: 0.0874
area under dose-response curve [9]: 0.372
area under dose-response curve [10]: 0.318
area under dose-response curve [11]: 0.396
area under dose-response curve [12]: 0.233
area under dose-response curve [14]: 0.386

O=C(/C=C/c1cccnc1)NCCCCC1CCN(C(=O)c2ccccc2)CC1 [Daporinad]
area under dose-response curve [13]: 0.947
area under dose-response curve [1]: 0.609
area under dose-response curve [2]: 0.616
area under dose-response curve [3]: 0.956
area under dose-response curve [4]: 0.823
area under dose-response curve [5]: 0.849
area under dose-response curve [6]: 0.754
area under dose-response curve [7]: 0.977
area under dose-response curve [8]: 0.754
area under dose-response curve [9]: 0.995
area under dose-response curve [10]: 0.995
area under dose-response curve [11]: 0.995
area under dose-response curve [12]: 0.772
area under dose-response curve [14]: 0.792

Fc1ccc(CNc2ncnc3ccc(F)cc23)cc1 [Spautin 1]
area under dose-response curve [13]: 0.0735
area under dose-response curve [1]: 0.0755
area under dose-response curve [2]: 0.0783
area under dose-response curve [3]: 0.0351
area under dose-response curve [4]: 0.0661
area under dose-response curve [6]: 0.111
area under dose-response curve [7]: 0.141
area under dose-response curve [9]: 0.326
area under dose-response curve [10]: 0.154
area under dose-response curve [11]: 0.762
area under dose-response curve [12]: < 0.0301
area under dose-response curve [14]: 0.12

CCCCCCCCCCCCC/C=C/[C@@H](O)[C@H](CO)N(C)C [N,N-Dimethylsphingosine]
area under dose-response curve [13]: 0.153
area under dose-response curve [1]: 0.15
area under dose-response curve [2]: 0.0643
area under dose-response curve [3]: 0.468
area under dose-response curve [4]: 0.114
area under dose-response curve [5]: 0.0868
area under dose-response curve [6]: 0.131
area under dose-response curve [7]: 0.273
area under dose-response curve [8]: 0.127
area under dose-response curve [9]: 0.664
area under dose-response curve [10]: 0.335
area under dose-response curve [11]: 0.516
area under dose-response curve [12]: 0.0829
area under dose-response curve [14]: 0.113

c1ccc2c(c1)SCc1c-2[nH]c2ccccc12
area under dose-response curve [13]: 0.192
area under dose-response curve [1]: 0.14
area under dose-response curve [2]: 0.132
area under dose-response curve [3]: 0.505
area under dose-response curve [4]: 0.139
area under dose-response curve [5]: 0.148
area under dose-response curve [6]: 0.176
area under dose-response curve [7]: 0.403
area under dose-response curve [8]: 0.142
area under dose-response curve [9]: 0.787
area under dose-response curve [10]: 0.259
area under dose-response curve [11]: 0.397
area under dose-response curve [12]: 0.165
area under dose-response curve [14]: 0.22
